Experimental data taken from patent US20120035214A1, “RENIN INHIBITORS” (Merck Canada Inc., priority 2009, published 2012).

How the values were obtained:
Human recombinant renin = molecular target: T1, Human recombinant renin (Homo sapiens, UniProt P00797); assay: Inhibition of human recombinant renin (QFRET, buffer); format: biochemical; conditions: buffer: 50 mM MOPS pH 7.4, 100 mM NaCl, 0.002% Tween 20; 37° C., 3 hours
T1 construct: purchased Proteos
T1 sequence (P00797 67-406): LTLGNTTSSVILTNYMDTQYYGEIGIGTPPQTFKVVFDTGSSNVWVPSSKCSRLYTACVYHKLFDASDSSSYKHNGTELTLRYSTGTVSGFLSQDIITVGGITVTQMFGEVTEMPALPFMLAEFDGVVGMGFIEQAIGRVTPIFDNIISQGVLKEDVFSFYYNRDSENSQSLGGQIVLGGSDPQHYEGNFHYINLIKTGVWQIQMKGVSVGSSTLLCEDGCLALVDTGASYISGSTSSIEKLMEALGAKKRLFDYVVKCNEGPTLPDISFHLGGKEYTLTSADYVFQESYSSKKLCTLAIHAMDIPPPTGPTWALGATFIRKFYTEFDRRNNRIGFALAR
Procedure: Inhibition of Human Recombinant Renin
Human recombinant renin (Proteos) in 50 mM MOPS pH 7.4, 100 mM NaCl, 0.002% Tween 20 at a final concentration of […] is incubated with inhibitors from a 50 fold concentrated DMSO solution and 6 μM of an internally-quenched fluorescent peptide: DNP-[…]D,L-Amp (SEQ ID NO: 1); Paschalidou K. et al., Biochem J., 2004, 382, 1031). The reactions take place in a Costar 384 well black plate (#3573) at 37° C. for 3 hours. Fluorescence is measured at times 0 and 3 hours with a SpectraMax Gemini EM reader set at an excitation wavelength of 328 nm and at an emission wavelength of 388 nm. Background fluorescence at t=0 is subtracted from the measurement at t=3 hours. Inhibitory activity of the compounds is expressed as IC50.

[1] = molecular target: T2, recombinant renin in human plasma (Homo sapiens, UniProt P00797); assay: Inhibition of renin in human plasma (QFRET, plasma); format: biochemical; conditions: human EDTA plasma with 1 nM recombinant renin added; 37° C., 1 hour
T2 construct: purchased Proteos
T2 sequence (P00797 67-406): T1 sequence (P00797 67-406)
Procedure: Inhibition of Renin in Human Plasma
Human EDTA-collected plasma is rapidly thawed in warm water and centrifuged at 2900 g for 15 minutes at 4° C. The supernatant is collected and recombinant renin (Proteos) is added at a final concentration of 1 nM. The plasma is transferred to a Costar black 384 well plate (#3573). Renin inhibitors are added from a 17.5 fold concentrated DMSO solution and pre-incubated at 37° C. for 10 minutes. The internally-quench fluorescent peptide QXL520™-[…](5-FAM) (Anaspec), SEQ ID NO: 2, is diluted in 3M Tris pH 7.2, 200 mM EDTA and added to the plasma. The final concentrations are: 6 μM substrate, 342 mM Tris, 23 mM EDTA. The plate is incubated at 37° C. for 1 hour. The plate is read in a SpectraMax Gemini EM reader set at an excitation wavelength of 490 nm and an emission wavelength of 520 nm at times 0 and 1 hour. Background fluorescence at t=0 is subtracted from the measurement at t=1 hour. Inhibitory activity of the compounds is expressed as IC50.

Row | Structure (SMILES) | IC50 (Human recombinant renin) [nM] | IC50 [1] [nM]
1 | O=C(CO)NCCc1ccccc1-c1onc([C@H]2CNCC[C@]2(O)c2ccc(F)c(F)c2)c1Br [Structure 88] | 0.38 | 1
2 | COC[C@H](C)COCc1ccc([C@@]2(O)CCNC[C@@H]2c2noc(-c3ccccc3CCNC(C)=O)c2Br)cc1 [Structure 89] | 0.32 | 1.2
3 | CC(=O)NCCc1ccccc1-c1onc([C@H]2CNCC[C@]2(OCc2c[nH]nn2)c2ccc(F)c(F)c2)c1Br [Structure 90] | 0.63 | 4.4
4 | O[C@]1(c2ccc(F)c(F)c2)CCNC[C@@H]1c1cn(-c2ccc(F)cc2Br)nn1 [Structure 91] | 2900 | 9470
5 | Cn1c(-c2ccccc2)cnc1[C@H]1CNCC[C@]1(O)c1ccc(F)c(F)c1 [Structure 92] | 1990 | > 28000
6 | C[C@H]1C[C@H](c2ccc(F)c(F)c2)[C@@H](c2nnc(-c3cccc(Cl)c3Cl)n2C2CC2)CN1 [Structure 93] | 0.14 | 0.62
7 | CC(=O)NCCc1ccccc1-c1nnc([C@H]2CN[C@@H](C)C[C@@H]2c2ccc(F)c(F)c2)n1C1CC1 [Structure 94] | 1.5 | 3
8 | Fc1ccc([C@H]2CCNC[C@@H]2c2nnc(-c3cccc(Cl)c3Cl)n2C2CC2)cc1F [Structure 95] | 0.15 | 0.65
9 | CC(=O)NCCc1ccccc1-c1onc([C@H]2CN[C@@H](C)C[C@@H]2c2ccc(F)c(F)c2)c1Br [Structure 96] | 0.7 | 2.8
10 | CC(=O)NCCc1cccnc1-c1onc([C@H]2CNCC[C@]2(O)c2ccc(F)c(F)c2)c1Br [Structure 97] | 10 | 89
11 | COCCC[C@H](CNC(C)=O)c1ccccc1-c1onc([C@H]2CNCC[C@]2(O)c2ccc(F)c(F)c2)c1Br [Structure 98] | 0.58 | 2.2
12 | COCCC[C@@H](CNC(C)=O)c1ccccc1-c1onc([C@H]2CNCC[C@]2(O)c2ccc(F)c(F)c2)c1Br [Structure 100] | 1.2 | 3.9
13 | COCCCc1ccc(-c2onc([C@H]3CNCC[C@]3(O)c3ccc(F)c(F)c3)c2Br)c(CCNC(C)=O)c1 [Structure 102] | 0.27 | 1.1
14 | CC(=O)NCCc1ccccc1-c1onc([C@H]2CNCC[C@]2(O)c2ccc(F)c(F)c2)c1Cl [Structure 104] | 0.7 | 1.9
15 | CC(=O)NCCc1ccccc1-c1onc([C@H]2CNCC[C@]2(O)c2ccc(C)c(F)c2)c1Br [Structure 105] | 4.9 | 29
16 | CC(=O)NCCc1ccccc1-c1onc([C@H]2CNCC[C@@H]2c2ccc(F)c(F)c2)c1Br [Structure 107] | 0.26 | 1.2
17 | COCCCC(CNC(C)=O)c1ccccc1-c1onc([C@H]2CNCC[C@@H]2c2ccc(OCCOc3c(Cl)cc(C)cc3Cl)cc2)c1Br (stereo partly drawn) [Structure 108] | 0.07 | 2
18 | CC(=O)NCCc1ccccc1-c1onc([C@H]2CNCC[C@@H]2c2ccc(OCCOc3c(Cl)cc(C)cc3Cl)cc2)c1C(C)O (stereo partly drawn) [Structure 109] | 0.07 | 1.2
19 | CC(=O)NCCc1ccccc1-c1onc([C@H]2CNCC[C@@H]2c2ccc(OCCOc3c(Cl)cc(C)cc3Cl)cc2)c1C(C)=O [Structure 110] | 0.09 | 1.2
20 | CC(=O)NCCc1ccccc1-c1onc([C@H]2CNCC[C@@H]2c2ccc(OCCOc3c(Cl)cc(C)cc3Cl)cc2)c1Br [Structure 111] | < 0.05 | 1.2

Row | Structure (SMILES) | IC50 (Human recombinant renin) [nM] | IC50 [1] [nM]
21 | CC(=O)NCCc1ccccc1-c1onc([C@H]2CNCC[C@]2(O)c2ccc(COCC(F)(F)COC(C)C)cc2)c1Br [Structure 112] | 0.44 | 1.7
22 | CCOCC(F)(F)COCc1ccc([C@@]2(O)CCNC[C@@H]2c2noc(-c3ccccc3CCNC(C)=O)c2Br)cc1 [Structure 114] | 0.19 | 0.58
23 | CC(=O)NCCc1ccccc1-c1onc([C@H]2CNCC[C@]2(O)c2ccc(COCCOC(C)C)cc2)c1Br [Structure 115] | 6.5 | 16
24 | CC(=O)NCCc1ccccc1-c1onc([C@H]2CNCC[C@]2(OCC(O)CO)c2ccc(F)c(F)c2)c1Br (stereo partly drawn) [Structure 117] | 0.37 | 1.4
25 | CC(=O)NCCc1ccccc1-c1onc([C@H]2CNCC[C@]2(OC(N)=O)c2ccc(F)c(F)c2)c1Br [Structure 118] | 0.22 | 0.55
26 | COC[C@H](C)COCc1ccc([C@@]2(O)CCNC[C@@H]2c2cnc(-c3ccccc3CCNC(C)=O)cc2C)cc1 [Structure 119] | 0.15 | 3.6
27 | COCC(F)(F)COCc1ccc([C@@]2(O)CCNC[C@@H]2c2ccc(-c3ccccc3CCNC(C)=O)cc2C)cn1 [Structure 120] | 0.66 | 1.2
28 | COCC(F)(F)COCc1ccc([C@@]2(O)CCNC[C@@H]2c2ccc(-c3ccccc3CCNC(C)=O)cc2C)cc1 [Structure 121] | 0.08 | 0.32
29 | CCOCC(F)(F)COCc1ccc([C@@]2(O)CCNC[C@@H]2c2ccc(-c3ccccc3CCNC(C)=O)cc2C)cc1 [Structure 122] | 0.09 | 0.43
30 | COCC(F)(F)COCc1ccc([C@@]2(O)CCNC[C@@H]2c2ccc(-c3ccccc3CCNC(C)=O)cc2C)nc1 [Structure 123] | 1.2 | 5.6
31 | COC[C@H](C)COCc1ccc([C@@]2(O)CCNC[C@@H]2c2ccc(-c3ccccc3CCNC(N)=O)cc2C)cc1 [Structure 124] | 0.63 | 3.6
32 | COC[C@H](C)COCc1ccc([C@@]2(O)CCNC[C@@H]2c2ccc(-c3ccccc3CCN3CCOC3=O)cc2C)cc1 [Structure 125] | 4.6 | 76
33 | COC[C@H](C)COCc1ccc([C@@]2(O)CCNC[C@@H]2c2ccc(-c3ccccc3CCNC(C)=O)cc2Cl)cc1 [Structure 126] | 0.08 | 0.52
34 | COC[C@H](C)COCc1ccc([C@@]2(O)CCNC[C@@H]2c2ccc(-c3ccccc3CCNC(=O)OC)cc2C)cc1 [Structure 127] | 0.03 | 1.3
35 | COC[C@H](C)COCc1ccc([C@@]2(O)CCNC[C@@H]2c2ccc(-c3ccccc3CCNC(=O)CO)cc2C)cc1 [Structure 128] | 0.07 | 0.57
36 | COC[C@H](C)COCc1ccc([C@@]2(O)CCNC[C@@H]2c2ccc(-c3ccccc3CCNC(C)=O)cc2C)cc1 [Structure 129] | 0.05 | 0.44
37 | COC[C@H](C)COCc1ccc([C@@]2(O)CCNC[C@@H]2c2ccc(-c3ccccc3CCNC(C)=O)cc2C)nc1 [Structure 130] | 0.075 | 3.8
38 | COC[C@H](C)COc1ccc([C@@]2(O)CCNC[C@@H]2c2ccc(-c3ccccc3CCNC(C)=O)cc2C)cc1 [Structure 131] | 1.2 | 18
39 | CC(=O)NCCc1ccccc1-c1ccc([C@H]2CNCC[C@]2(O)c2ccc(OC(F)(F)F)c(F)c2)c(C)c1 [Structure 132] | 0.4 | 18
